Source: ChEMBL document CHEMBL1135576, “Synthesis and biological characterization of L-N(6)-(1-iminoethyl)lysine 5-tetrazole-amide, a prodrug of a selective iNOS inhibitor” (J Med Chem, 2002)

Tests used:
[1] = target: T1, Nitric oxide synthase, inducible (Homo sapiens, UniProt P35228); test: The concentration required for inhibition of Human inducible nitric oxide synthase (iNOS) isoform
[2] = target: Nitric oxide synthase 1 (Homo sapiens, UniProt P29475); test: The concentration required for inhibition of Human Neuronal nitric oxide synthase (nNOS)
[3] = target: T1, Nitric oxide synthase, inducible; test: The concentration required for inhibition of Human inducible nitric oxide synthase (iNOS) isoform, expressed as IC50.

T1 sequence (P35228 whole entry, canonical isoform): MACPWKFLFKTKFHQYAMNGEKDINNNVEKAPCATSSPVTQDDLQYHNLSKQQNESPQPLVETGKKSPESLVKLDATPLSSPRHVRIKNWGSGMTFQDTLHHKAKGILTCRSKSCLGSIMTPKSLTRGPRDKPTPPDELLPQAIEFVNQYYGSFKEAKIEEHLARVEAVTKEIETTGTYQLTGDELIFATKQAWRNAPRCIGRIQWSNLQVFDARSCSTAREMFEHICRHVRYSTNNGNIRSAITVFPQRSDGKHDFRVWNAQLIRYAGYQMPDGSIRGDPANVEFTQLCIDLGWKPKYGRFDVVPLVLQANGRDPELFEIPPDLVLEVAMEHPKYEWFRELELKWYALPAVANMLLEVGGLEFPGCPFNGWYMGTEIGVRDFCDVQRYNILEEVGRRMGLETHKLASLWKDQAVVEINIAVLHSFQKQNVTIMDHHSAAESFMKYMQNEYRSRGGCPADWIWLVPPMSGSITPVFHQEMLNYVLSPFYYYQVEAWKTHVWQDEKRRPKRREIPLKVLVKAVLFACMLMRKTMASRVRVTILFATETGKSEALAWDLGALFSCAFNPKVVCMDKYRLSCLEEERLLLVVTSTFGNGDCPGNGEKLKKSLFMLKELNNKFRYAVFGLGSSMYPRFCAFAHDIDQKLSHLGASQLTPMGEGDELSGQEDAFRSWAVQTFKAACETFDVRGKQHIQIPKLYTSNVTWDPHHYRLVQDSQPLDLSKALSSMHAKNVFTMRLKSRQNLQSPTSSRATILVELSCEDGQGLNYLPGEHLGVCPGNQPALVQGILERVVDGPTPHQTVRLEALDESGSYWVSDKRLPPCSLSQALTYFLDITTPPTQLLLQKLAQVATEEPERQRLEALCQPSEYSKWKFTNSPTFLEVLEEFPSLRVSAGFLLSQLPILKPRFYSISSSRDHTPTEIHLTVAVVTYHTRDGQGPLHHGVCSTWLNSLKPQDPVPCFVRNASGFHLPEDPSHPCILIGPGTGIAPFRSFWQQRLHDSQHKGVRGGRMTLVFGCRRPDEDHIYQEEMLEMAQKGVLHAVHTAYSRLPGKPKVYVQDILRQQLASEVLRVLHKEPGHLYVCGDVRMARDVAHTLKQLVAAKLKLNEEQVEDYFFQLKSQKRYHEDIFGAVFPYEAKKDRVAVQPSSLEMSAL
Sequence of Nitric oxide synthase 1 (P29475 whole entry, canonical isoform): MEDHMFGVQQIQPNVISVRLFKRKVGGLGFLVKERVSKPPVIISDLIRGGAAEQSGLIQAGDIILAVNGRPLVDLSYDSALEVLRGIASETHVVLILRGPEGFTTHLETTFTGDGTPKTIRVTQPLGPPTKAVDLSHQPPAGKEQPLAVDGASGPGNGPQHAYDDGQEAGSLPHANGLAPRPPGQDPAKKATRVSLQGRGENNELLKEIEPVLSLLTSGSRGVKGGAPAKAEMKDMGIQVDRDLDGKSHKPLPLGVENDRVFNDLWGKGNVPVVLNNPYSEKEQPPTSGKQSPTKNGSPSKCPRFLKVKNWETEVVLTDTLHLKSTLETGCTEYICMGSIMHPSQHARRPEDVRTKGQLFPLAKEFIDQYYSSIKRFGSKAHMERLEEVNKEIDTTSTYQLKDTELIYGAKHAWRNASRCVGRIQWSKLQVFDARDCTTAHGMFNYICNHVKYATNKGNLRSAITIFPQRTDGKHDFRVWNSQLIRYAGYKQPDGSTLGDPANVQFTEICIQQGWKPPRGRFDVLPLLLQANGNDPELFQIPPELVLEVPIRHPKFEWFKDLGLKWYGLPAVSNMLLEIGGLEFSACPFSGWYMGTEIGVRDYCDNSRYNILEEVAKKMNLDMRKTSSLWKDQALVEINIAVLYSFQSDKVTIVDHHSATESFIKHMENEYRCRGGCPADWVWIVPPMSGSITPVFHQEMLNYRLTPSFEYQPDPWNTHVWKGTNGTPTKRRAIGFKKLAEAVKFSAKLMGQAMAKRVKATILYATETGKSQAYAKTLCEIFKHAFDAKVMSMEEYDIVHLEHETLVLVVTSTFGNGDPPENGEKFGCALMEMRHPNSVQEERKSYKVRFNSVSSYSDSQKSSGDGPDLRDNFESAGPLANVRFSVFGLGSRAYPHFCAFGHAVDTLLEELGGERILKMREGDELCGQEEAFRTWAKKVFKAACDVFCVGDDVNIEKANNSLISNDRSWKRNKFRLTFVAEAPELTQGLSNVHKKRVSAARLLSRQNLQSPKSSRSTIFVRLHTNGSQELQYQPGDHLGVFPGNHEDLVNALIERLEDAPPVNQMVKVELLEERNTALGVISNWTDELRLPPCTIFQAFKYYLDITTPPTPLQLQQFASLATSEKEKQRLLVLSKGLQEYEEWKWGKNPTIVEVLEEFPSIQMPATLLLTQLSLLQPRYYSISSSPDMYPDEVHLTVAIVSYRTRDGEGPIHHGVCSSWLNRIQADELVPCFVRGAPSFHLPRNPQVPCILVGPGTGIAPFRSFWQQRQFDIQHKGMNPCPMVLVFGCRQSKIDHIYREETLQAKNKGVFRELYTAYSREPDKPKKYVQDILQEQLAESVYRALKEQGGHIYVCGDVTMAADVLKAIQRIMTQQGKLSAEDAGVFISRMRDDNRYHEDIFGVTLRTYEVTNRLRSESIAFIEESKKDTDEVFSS

Row | Compound | IC50 [1] [µM] | IC50 [2] [µM] | IC50 [3] [µM]
1 | CC(=N)NCCCC[C@H](N)C(=O)O | 5.9 | 35 | 
2 | CC(=N)NCCCC[C@H](N)C(=O)Nc1nnn[nH]1 |  | > 1850 | > 1850
